# System: HCV
# Experiment: not given
# Conditions: combination therapy, HCV patients (Poynard et al. Lancet 1998); cited from earlier work
row,Compound,sustained efficacy
1,alpha-interferon and ribavirin,40 % of patients

# Target: T1, HCV NS5B RdRp (Hepatitis C virus genotype 1b, UniProt Q9WMX2)
# T1 construct: The protein was expressed with an 18 amino acid C-terminal truncation to enhance the solubility; made in house; host or cells: E. coli BL21(DE3)
# Experiment: HCV NS5B RdRp enzyme inhibition assay
# Assay type: biochemical
# Conditions: not given
# Procedure: HCV NS5B RdRp cloning, expression, and purification. The cDNA encoding the NS5B protein of HCV, genotype 1b, was cloned into the pET21a expression vector. The protein was expressed with an 18 amino acid C-terminal truncation to enhance the solubility. The E. coli competent cell line BL21(DE3) was used for expression of the protein. Cultures were grown at 37° C. for ˜4 hours until the cultures reached an optical density of 2.0 at 600 nm. The cultures were cooled to 20° C. and induced with 1 mM IPTG. Fresh ampicillin was added to a final concentration of 50 ug/ml and the cells were grown overnight at 20° C.
# Cell pellets (3L) were lysed for purification to yield 15–24 mgs of purified NS5B. The lysis buffer consisted of 20 mM Tris-HCl, pH 7.4, 500 mM NaCl, 0.5% triton X-100, 1 mM DTT, 1 mM EDTA, 20% glycerol, 0.5 mg/ml lysozyme, 10 mM MgCl2, 15 ug/ml deoxyribonuclease I, and Complete TM protease inhibitor tablets (Roche). After addition of the lysis buffer, frozen cell pellets were resuspended using a tissue homogenizer. To reduce the viscosity of the sample, aliquots of the lysate were sonicated on ice using a microtip attached to a Branson sonicator. The sonicated lysate was centrifuged at 100,000×g for 1 hr at 4° C. and filtered through a 0.2 μm filter unit (Corning).
# The protein was purified using three sequential chromatography steps: Heparin sepharose CL-6B, polyU sepharose 4B, and Hitrap SP sepharose (Pharmacia). The chromatography buffers were identical to the lysis buffer but contained no lysozyme, deoxyribonuclease I, MgCl2 or protease inhibitor and the NaCl concentration of the buffer was adjusted according to the requirements for charging the protein onto the column. Each column was eluted with a NaCl gradient which varied in length from 5–50 column volumes depending on the column type. After the final chromatography step, the resulting purity of the enzyme is >90% based on SDS-PAGE analysis. The enzyme was aliquoted and stored at −80° C.
# HCV NS5B RdRp enzyme assay. HCV RdRp genotype 1b assays were run in assay buffer composed of 20 mM Tris-HCl, pH 7.5, 2.5 mM KCl, 5 mM MgCl2, 1 mM DTT, 1.6 U RNAse inhibitor (Promega N2515), in 96 well plates (Falcon 3918). All compounds were serially diluted in DMSO and diluted further in assay buffer such that the final concentration of DMSO in the assay was 2%. Compounds were serially diluted (3-fold each time) for a 7 point inhibition analysis. HCV RdRp genotype 1b enzyme was used at a final concentration of 28 nM. A polyA template was used at 28 nM, and the oligo-dT12-18 primer was used at 840 nM final concentration. Preannealed primer and template were obtained commercially (Amersham 27-787802). ^3H-UTP was used at 0.125 μCi (1 μM total UTP). Reaction was initiated by the addition of enzyme. Reactions were incubated at 30° C. for 45 min, and stopped by adding 30 ul of 20% ice cold TCA. Plates were chilled for 30 minutes and harvested onto Unifilter-96, GF/B plates (Packard, 6005177) using a Packard FilterMate Cell Harvester. The harvest plates were prewashed 3 times, 200 ul/well, with 100 mM NaPPi. Harvested filters were washed 30 times, 200 ul/well, with distilled water followed by ethanol. Filter plates were dried, and 30 ul/well microscint-20 was added. Plates were read on a Packard Top Count NXT.
# The IC50 values for compounds were determined using […] different [I], combined with 7 nM enzyme, 800 ng of the template-primer polyC/oligoG12 (1:5 molar ratio), and 0.7 uM of ^3H GTP containing 1 uCi. The observed fractional activity (fa=vi/vo) was used in the equation IC50=[I]/(1/fa-1) to determine a single point IC50 value. Typically, the single point IC50 values derived from [I] that produced fractional activities in the range of 0.1 to 0.8 relative to the uninhibited control were averaged to calculate the IC50 value for each compound.
# T1 sequence (Q9WMX2 2420-2992): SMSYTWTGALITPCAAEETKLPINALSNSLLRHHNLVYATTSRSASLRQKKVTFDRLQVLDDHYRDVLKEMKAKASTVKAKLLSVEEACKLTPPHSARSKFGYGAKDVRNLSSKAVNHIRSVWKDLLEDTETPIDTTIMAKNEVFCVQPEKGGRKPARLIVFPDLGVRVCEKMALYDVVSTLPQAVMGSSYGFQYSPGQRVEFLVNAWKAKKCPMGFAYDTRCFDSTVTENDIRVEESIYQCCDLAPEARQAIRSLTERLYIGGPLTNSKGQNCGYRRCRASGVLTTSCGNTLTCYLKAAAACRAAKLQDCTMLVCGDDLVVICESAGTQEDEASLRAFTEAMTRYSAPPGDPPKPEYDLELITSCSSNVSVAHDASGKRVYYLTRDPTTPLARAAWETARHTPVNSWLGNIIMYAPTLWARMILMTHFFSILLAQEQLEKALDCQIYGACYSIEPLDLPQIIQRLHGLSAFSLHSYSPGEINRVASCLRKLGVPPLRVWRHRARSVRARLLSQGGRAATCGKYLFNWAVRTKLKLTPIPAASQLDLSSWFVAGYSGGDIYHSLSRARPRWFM
row,Compound,IC50 [µM]
1,COc1ccc(-c2ccc(Cl)cc2)c(COc2ccc(-c3c(-c4ccccc4)c(/C=C/C(=O)O)nn3C3CCCCC3)cc2)c1 [Example 28],1.3
2,"CCOC(=O)c1cc(C2CCCCC2)n(-c2ccc(OCc3ccccc3)cc2)n1 [Example 29, Ethyl 1-[4-(benzyloxy)phenyl]-5-cyclohexyl-1H-pyrazole-3-carboxylate]",> 25
3,"COC(=O)/C=C/c1cc(C2CCCCC2)n(-c2ccc(OCc3ccccc3)cc2)n1 [Example 30, Methyl (2E)-3-{1-[4-(benzyloxy)phenyl]-5-cyclohexyl-1H-pyrazol-3-yl}-2-propenoate]",> 25
4,"O=C(O)/C=C/c1cc(C2CCCCC2)n(-c2ccc(OCc3ccccc3)cc2)n1 [Example 31, (2E)-3-{1-[4-(benzyloxy)phenyl]-5-cyclohexyl-1H-pyrazol-3-yl}-2-propenoic acid]",4.5
5,"COC(=O)/C=C/c1cc(C2CCCCC2)n(-c2ccc(OCc3cc(OC)ccc3-c3ccc(Cl)cc3)cc2)n1 [Example 32, Methyl (2E)-3-(1-{4-[(4′-chloro-4-methoxy-1,1′-biphenyl-2-yl)methoxy]phenyl}-5-cyclohexyl-1H-pyrazol-3-yl)-2-propenoate]",> 25
6,"COc1ccc(-c2ccc(Cl)cc2)c(COc2ccc(-n3nc(/C=C/C(=O)O)cc3C3CCCCC3)cc2)c1 [Example 33, (2E)-3-(1-{4-[(4′-chloro-4-methoxy-1,1′-biphenyl-2-yl)methoxy]phenyl}-5-cyclohexyl-1H-pyrazol-3-yl)-2-propenoic acid]",2.4
7,"CCOC(=O)/C(C)=C/c1cc(C2CCCCC2)n(-c2ccc(OCc3ccccc3)cc2)n1 [Example 34, Ethyl (2E)-3-{1-[4-(benzyloxy)phenyl]-5-cyclohexyl-1H-pyrazol-3-yl}-2-methyl-2-propenoate]",> 25
8,"C/C(=C\c1cc(C2CCCCC2)n(-c2ccc(OCc3ccccc3)cc2)n1)C(=O)O [Example 35, (2E)-3-{1-[4-(benzyloxy)phenyl]-5-cyclohexyl-1H-pyrazol-3-yl}-2-methyl-2-propenoic acid]",> 25
9,"CCOC(=O)/C(C)=C/c1cc(C2CCCCC2)n(-c2ccc(OCc3cc(OC)ccc3-c3ccc(Cl)cc3)cc2)n1 [Example 36, Ethyl (2E)-3-(1-{4-[(4′-chloro-4-methoxy-1,1′-biphenyl-2-yl)methoxy]phenyl}-5-cyclohexyl-1H-pyrazol-3-yl)-2-methyl-2-propenoate]",> 25
10,CCOC(=O)/C(C)=C/c1cc(C2CCCCC2)n(-c2ccc(OCc3cc(C(=O)NC)ccc3-c3ccc(Cl)cc3)cc2)n1 [Example 38],> 25
11,"COC(=O)CCc1cc(C2CCCCC2)n(-c2ccc(OCc3ccccc3)cc2)n1 [Example 40, Methyl 3-{1-[4-(benzyloxy)phenyl]-5-cyclohexyl-1H-pyrazol-3-yl}propanoate]",> 25
12,O=C(O)CCc1cc(C2CCCCC2)n(-c2ccc(OCc3ccccc3)cc2)n1 [Example 41],10
13,"COC(=O)CCc1cc(C2CCCCC2)n(-c2ccc(OCc3cc(OC)ccc3-c3ccc(Cl)cc3)cc2)n1 [Example 42, Methyl 3-(1-{4-[(4′-chloro-4-methoxy-1,1′-biphenyl-2-yl)methoxy]phenyl}-5-cyclohexyl-1H-pyrazol-3-yl)propanoate]",> 25
14,"COc1ccc(-c2ccc(Cl)cc2)c(COc2ccc(-n3nc(CCC(=O)O)cc3C3CCCCC3)cc2)c1 [Example 43, 3-(1-{4-[(4′-chloro-4-methoxy-1,1′-biphenyl-2-yl)methoxy]phenyl}-5-cyclohexyl-1H-pyrazol-3-yl)propanoic acid]",0.31
15,"CC(C)(C)OC(=O)/C=C/c1cn(C2CCCCC2)c(-c2ccc(OCc3ccccc3)cc2)n1 [Example 44, tert-butyl (2E)-3-{2-[4-(benzyloxy)phenyl]-1-cyclohexyl-1H-imidazol-4-yl}-2-propenoate]",> 25
16,"O=C(O)/C=C/c1cn(C2CCCCC2)c(-c2ccc(OCc3ccccc3)cc2)n1 [Example 45, (2E)-3-{2-[4-(benzyloxy)phenyl]-1-cyclohexyl-1H-imidazol-4-yl}-2-propenoic acid]",6.6
17,"COC(=O)/C=C/c1cn(C2CCCCC2)c(-c2ccc(OCc3ccccc3)cc2)n1 [Example 46, Methyl (2E)-3-{2-[4-(benzyloxy)phenyl]-1-cyclohexyl-1H-imidazol-4-yl}-2-propenoate]",> 25
18,"COC(=O)/C=C/c1cn(C2CCCCC2)c(-c2ccc(OCc3cc(OC)ccc3-c3ccc(Cl)cc3)cc2)n1 [Example 47, Methyl (2E)-3-(2-{4-[(4′-chloro-4-methoxy-1,1′-biphenyl-2-yl)methoxy]phenyl}-1-cyclohexyl-1H-imidazol-4-yl)-2-propenoate]",> 25
19,"COc1ccc(-c2ccc(Cl)cc2)c(COc2ccc(-c3nc(/C=C/C(=O)O)cn3C3CCCCC3)cc2)c1 [Example 48, (2E)-3-(2-{4-[(4′-chloro-4-methoxy-1,1′-biphenyl-2-yl)methoxy]phenyl}-1-cyclohexyl-1H-imidazol-4-yl)-2-propenoic acid]",5.3
20,"CCOC(=O)/C(C)=C/c1cn(C2CCCCC2)c(-c2ccc(OCc3ccccc3)cc2)n1 [Example 49, Ethyl (2E)-3-{2-[4-(benzyloxy)phenyl]-1-cyclohexyl-1H-imidazol-4-yl}-2-methyl-2-propenoate]",> 25
21,"C/C(=C\c1cn(C2CCCCC2)c(-c2ccc(OCc3ccccc3)cc2)n1)C(=O)O [Example 50, (2E)-3-{2-[4-(benzyloxy)phenyl]-1-cyclohexyl-1H-imidazol-4-yl}-2-methyl-2-propenoic acid]",15
22,"CCOC(=O)/C(C)=C/c1cn(C2CCCCC2)c(-c2ccc(OCc3cc(OC)ccc3-c3ccc(Cl)cc3)cc2)n1 [Example 51, Ethyl (2E)-3-(2-{4-[(4′-chloro-4-methoxy-1,1′-biphenyl-2-yl)methoxy]phenyl}-1-cyclohexyl-1H-imidazol-4-yl)-2-methyl-2-propenoate]",> 25
23,"COc1ccc(-c2ccc(Cl)cc2)c(COc2ccc(-c3nc(/C=C(\C)C(=O)O)cn3C3CCCCC3)cc2)c1 [Example 52, (2E)-3-(2-{4-[(4′-chloro-4-methoxy-1,1′-biphenyl-2-yl)methoxy]phenyl}-1-cyclohexyl-1H-imidazol-4-yl)-2-methyl-2-propenoic acid]",2.5
24,"CNC(=O)c1ccc(-c2ccc(Cl)cc2)c(COc2ccc(-c3nc(/C=C(\C)C(=O)OC(C)(C)C)cn3C3CCCCC3)cc2)c1 [Example 53, Butoxy^t (2E)-3-(2-{4-[(4′-chloro-4-N-methylcarbamoyl-1,1′-biphenyl-2-yl)methoxy]phenyl}-1-cyclohexyl-1H-imidazol-4-yl)-2-methyl-2-propenoate]",> 25
25,"CNC(=O)c1ccc(-c2ccc(Cl)cc2)c(COc2ccc(-c3nc(/C=C(\C)C(=O)O)cn3C3CCCCC3)cc2)c1 [Example 54, (2E)-3-(2-{4-[(4′-chloro-4-N-methylcarbamoyl-1,1′-biphenyl-2-yl)methoxy]phenyl}-1-cyclohexyl-1H-imidazol-4-yl)-2-methyl-2-propenoic acid]",1.6

# Reference: patent US7112601B2, “Cycloalkyl heterocycles for treating hepatitis C virus” (priority 2003, dated 2006)
